± gives the expanded uncertainty stated by the source.
Experiments:
[1] = for surface tension liquid-gas: Drop volume; for mass density: 101.33 kPa, Liquid
[2] = refractive index (Na D-line) (dimensionless); conditions: 101.33 kPa, Liquid, Standard Abbe refractometry

| SMILES | surface tension liquid-gas ([1]; 283.15 K) [mN/m] | mass density ([1]; 283.15 K) [kg/m3] | surface tension liquid-gas ([1]; 298.15 K) [mN/m] | mass density ([1]; 298.15 K) [kg/m3] | surface tension liquid-gas ([1]; 313.15 K) [mN/m] | mass density ([1]; 313.15 K) [kg/m3] | refractive index ([2]; 283.15 K) | refractive index ([2]; 298.15 K) | refractive index ([2]; 313.15 K) |
| --- | --- | --- | --- | --- | --- | --- | --- | --- | --- |
| C1COCCO1 [1,4-dioxane] | 35.09 ± 0.39 | 1045.16 ± 0.14 | 33.23 ± 0.37 | 1027.85 ± 0.12 | 31.23 ± 0.35 | 1010.99 ± 0.11 | 1.42721 ± 0.00031 | 1.41992 ± 0.00031 | 1.41256 ± 0.00031 |
| C1CCCCC1 [cyclohexane] | 26.28 ± 0.3 | 787.97 ± 0.3 | 24.73 ± 0.28 | 773.65 ± 0.32 | 22.93 ± 0.26 | 759.59 ± 0.33 | 1.43182 ± 0.00031 | 1.42348 ± 0.00031 | 1.41498 ± 0.00031 |
| C1CCCC1 [cyclopentane] | 24.14 ± 0.3 | 754.85 ± 0.77 | 22.06 ± 0.28 | 739.74 ± 0.79 | 19.76 ± 0.25 | 724.71 ± 0.81 | 1.41197 ± 0.00037 | 1.40335 ± 0.00037 | 1.39451 ± 0.00037 |

Reference: the NIST ThermoML archive (doi:10.1016/j.jct.2005.09.004)
